One compound from patent publication US20090263324A1, “Animal Model With Induced Arrhythmia” (priority 2005, published 2009) can be followed below.

The structures appear in SMILES notation.

Series [1] relates to chronic atrioventricular block monkeys. Briefly: Evaluation of QT interval prolongation by dl-sotalol (Holter electrocardiogram). The conditions noted are these: oral administration of 5 mg/kg. It counts as in vivo, cynomolgus monkey.
From the text: QTc interval (ms) is a value obtained by correcting the fluctuation of QT interval due to heart rate by a numerical formula, and can be obtained by the following equation.
QTc=QT÷^3√{square root over ( )} (60÷ventricular rhythm)
Here, ventricular rhythm refers to the frequency of excitation of the ventricle in a complete atrioventricular block, and the unit of measurement is beat/minute.
Next, a comparison is made between the QT interval or QTc interval in the recipient animal and the QT interval or QTc interval in the same animal but before administration. QT interval or QTc interval prolongation can be determined by (value after administration)−(value before administration).
As the control solution, 0.5% methylcellulose solution was orally administered, and changes of electrocardiogram were examined; on a later day, 5 mg/kg dl-sotalol (group-3 antiarrhythmic agent) was orally administered to the same animals, and electrocardiogram was measured.
The subject of series [2] is chronic atrioventricular block monkey model. Briefly: Examination for onset of Torsades de pointes (TdP) with dl-sotalol administration. It counts as in vivo, cynomolgus monkey. The conditions noted are these: five animals. As for the experimental part:
A Holter electrocardiograph was attached to each of five animals of the chronic atrioventricular block monkey model obtained in Example 1; 1, 3, 5 or 10 mg/kg dl-sotalol was orally administered to each animal, and electrocardiogram after administration was monitored.

On to `CC(C)NCC(O)c1ccc(NS(C)(=O)=O)cc1` (racemic) [dl-sotalol], for which the “time after administration with statistically significant QTc action compared to the solvent group” value in series [1] was in the range of 1 to 4 h. In series [1] (Holter electrocardiograph for 24 hours, compared to the solvent group), the QTc interval prolongation entry is recorded as “QTc interval prolongation was observed”. Further, the entries for the “animals in which TdP occurred” value in series [2] (5 mg/kg orally) and in series [2] (10 mg/kg orally) were 4 of the 5 animals and “all animals”, respectively.
